In patent US8952024B2, “Herbicidal pyrimidone derivatives” (E I du Pont de Nemours and Company, priority 2009, dated 2015):
Like-named read-outs stand apart in the source and are kept apart here.

Columns and labels:
Type in all cases: in vivo
[1] = system: lambsquarters (Chenopodium album); experiment: Test B pre-/postemergence plant response; conditions: for pest or weed control at 16 g/ha: 16 g ai/ha; for pest or weed control at 16 g/ha / pest or weed control at 31 g/ha / pest or weed control at 62 g/ha: read-out: Plant response rating, Lambsquarters; for pest or weed control at 31 g/ha: 31 g ai/ha; for pest or weed control at 62 g/ha: 62 g ai/ha
Summary of the method: (§1)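 Visual injury, 0–100 scale (100 = complete control), rated against controls after 13 to 15 days in greenhouse. Pre-emergence: seeds in loam/sand soil, treated at planting. Post-emergence: 1- to 4-leaf plants (2 to 18 cm) in peat/vermiculite medium. Compounds formulated in non-phytotoxic solvent with surfactant.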

wild oat (Avena fatua) = experiment: Test B pre-/postemergence plant response; conditions: for pest or weed control at 16 g/ha: 16 g ai/ha; for pest or weed control at 62 g/ha: 62 g ai/ha
Summary of the method: as §1

[2] = system: green foxtail (Setaria viridis); experiment: Test B pre-/postemergence plant response; conditions: for pest or weed control at 16 g/ha: 16 g ai/ha; for pest or weed control at 16 g/ha / pest or weed control at 31 g/ha / pest or weed control at 62 g/ha: read-out: Plant response rating, Foxtail, Green; for pest or weed control at 31 g/ha: 31 g ai/ha; for pest or weed control at 62 g/ha: 62 g ai/ha
Summary of the method: as §1

[3] = system: bermudagrass (Cynodon dactylon); experiment: Test B pre-/postemergence plant response; conditions: for pest or weed control at 16 g/ha: 16 g ai/ha; for pest or weed control at 31 g/ha: 31 g ai/ha; for pest or weed control at 62 g/ha: 62 g ai/ha
Summary of the method: as §1

corn (Zea mays) = experiment: Test B pre-/postemergence plant response; conditions: for Corn plant response rating (crop injury, 0 = no effect, 100 = complete kill) at 16 g/ha: 16 g ai/ha; for Corn plant response rating (crop injury, 0 = no effect, 100 = complete kill) at 31 g/ha: 31 g ai/ha; for Corn plant response rating (crop injury, 0 = no effect, 100 = complete kill) at 62 g/ha: 62 g ai/ha
Summary of the method: as §1

[4] = system: umbrella sedge (Cyperus difformis); experiment: Test B flooded paddy test; conditions: Cyperus difformis, 360 h
Summary of the method: (§2)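 Post-flood paddy application: compounds are introduced into water 3 cm deep over the soil, reaching plants at the 2-leaf stage. The water level is maintained, and after 13–15 days under greenhouse conditions, response is judged by eye relative to controls, where 100 means complete control.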

[5] = system: ducksalad (Heteranthera limosa); experiment: Test B flooded paddy test; conditions: Heteranthera limosa, 360 h
Summary of the method: as §2

[6] = system: barnyardgrass (Echinochloa crus-galli); experiment: Test B flooded paddy test; conditions: Echinochloa crus-galli, 360 h
Summary of the method: as §2

rice (Oryza sativa) = experiment: Test B flooded paddy test; conditions: Oryza sativa
Summary of the method: as §2

[7] = Chenopodium album, pre-emergence, Preemergence, scale 0 to 100 (0 no effect, 100 complete control)
[8] = Preemergence, 125 g ai/ha, 0 to 100 scale
[9] = Avena fatua, pre-emergence, Preemergence, scale 0 to 100 (0 no effect, 100 complete control), read-out: Plant response rating, Oat, Wild
[10] = Setaria viridis, pre-emergence, Preemergence, scale 0 to 100 (0 no effect, 100 complete control)
[11] = Cynodon dactylon, pre-emergence, Preemergence, scale 0 to 100 (0 no effect, 100 complete control), read-out: Plant response rating, Bermudagrass
[12] = Zea mays, pre-emergence, Preemergence, scale 0 to 100 (0 no effect, 100 complete control)

O=C1CCCC(O)=C1C(=O)c1cnc(-c2ccccc2)n(-c2ccccc2)c1=O [Compound 2, 5-[(2-hydroxy-6-oxo-1-cyclohexen-1-yl)carbonyl]-2,3-diphenyl-4(3H)-pyrimidinone]
pest or weed control at 16 g/ha ([1]; Chenopodium album, post-emergence, Postemergence, 0 to 100 scale): 80%
pest or weed control at 31 g/ha ([1]; Chenopodium album, post-emergence, Postemergence, scale 0 to 100 (0 no effect, 100 complete control)): 90%
pest or weed control at 62 g/ha ([1]; Chenopodium album, post-emergence, Postemergence, scale 0 (no effect) to 100 (complete control), 13 to 15 days): 90%
pest or weed control at 125 g/ha ([1]; Chenopodium album, post-emergence, Postemergence, 125 g ai/ha, visual rating after 13 to 15 days, scale 0 (no effect) to 100 (complete control)): 95%
pest or weed control at 16 g/ha [1, 7]: 100%
pest or weed control at 31 g/ha [1, 7]: 100%
pest or weed control at 62 g/ha ([1]; Chenopodium album, pre-emergence, Preemergence, scale 0 to 100, 0 no effect, 100 complete control): 100%
Lambsquarters plant response rating [1, 8]: 100
pest or weed control at 16 g/ha (wild oat (Avena fatua); Avena fatua, post-emergence, Postemergence, 0 to 100 scale, read-out: Plant response rating, Oat, Wild): 5%
pest or weed control at 31 g/ha (wild oat (Avena fatua); Avena fatua, post-emergence, Postemergence, 31 g ai/ha, scale 0 to 100 (0 no effect, 100 complete control), read-out: Plant response rating, Oat, Wild): 30%
pest or weed control at 62 g/ha (wild oat (Avena fatua); Avena fatua, post-emergence, Postemergence, scale 0 (no effect) to 100 (complete control), 13 to 15 days, read-out: Plant response rating, Oat, Wild): 45%
pest or weed control at 125 g/ha (wild oat (Avena fatua); Avena fatua, post-emergence, Postemergence, 125 g ai/ha, visual rating after 13 to 15 days, scale 0 (no effect) to 100 (complete control)): 55%
pest or weed control at 16 g/ha (wild oat (Avena fatua); [9]): 0%
pest or weed control at 62 g/ha (wild oat (Avena fatua); [9]): 5%
Oat, Wild plant response rating (wild oat (Avena fatua); [8]): 50
Foxtail, Green plant response rating [2, 8]: 60
pest or weed control at 16 g/ha ([2]; Setaria viridis, post-emergence, Postemergence, 0 to 100 scale): 50%
pest or weed control at 31 g/ha ([2]; Setaria viridis, post-emergence, Postemergence, scale 0 to 100 (0 no effect, 100 complete control)): 75%
pest or weed control at 62 g/ha ([2]; Setaria viridis, post-emergence, Postemergence, scale 0 (no effect) to 100 (complete control), 13 to 15 days): 90%
pest or weed control at 125 g/ha ([2]; Setaria viridis, post-emergence, Postemergence, 125 g ai/ha, visual rating after 13 to 15 days, scale 0 (no effect) to 100 (complete control)): 100%
pest or weed control at 16 g/ha [2, 10]: 0%
pest or weed control at 31 g/ha [2, 10]: 0%
pest or weed control at 62 g/ha ([2]; Setaria viridis, pre-emergence, Preemergence, scale 0 to 100, 0 no effect, 100 complete control): 5%
pest or weed control at 16 g/ha ([3]; Cynodon dactylon, post-emergence, Postemergence, 0 to 100 scale, read-out: Plant response rating, Bermudagrass): 40%
pest or weed control at 31 g/ha ([3]; Cynodon dactylon, post-emergence, Postemergence, scale 0 to 100 (0 no effect, 100 complete control), read-out: Plant response rating, Bermudagrass): 80%
pest or weed control at 62 g/ha ([3]; Cynodon dactylon, post-emergence, Postemergence, scale 0 (no effect) to 100 (complete control), 13 to 15 days, read-out: Plant response rating, Bermudagrass): 85%
pest or weed control at 125 g/ha ([3]; Cynodon dactylon, post-emergence, Postemergence, 125 g ai/ha, scale 0 to 100 (0 no effect, 100 complete control), 13 to 15 days, read-out: Plant response rating, Bermudagrass): 90%
pest or weed control at 16 g/ha [3, 11]: 25%
pest or weed control at 31 g/ha [3, 11]: 98%
pest or weed control at 62 g/ha ([3]; Cynodon dactylon, pre-emergence, Preemergence, scale 0 to 100, 0 no effect, 100 complete control, read-out: Plant response rating, Bermudagrass): 100%
Bermudagrass plant response rating [3, 8]: 100
Corn plant response rating (corn (Zea mays); [8]): 0
Corn plant response rating (crop injury, 0 = no effect, 100 = complete kill) at 16 g/ha (corn (Zea mays); Zea mays, post-emergence, Postemergence, 0 to 100 scale): 15%
Corn plant response rating (crop injury, 0 = no effect, 100 = complete kill) at 31 g/ha (corn (Zea mays); Zea mays, post-emergence, Postemergence, scale 0 to 100 (0 no effect, 100 complete control)): 15%
Corn plant response rating (crop injury, 0 = no effect, 100 = complete kill) at 62 g/ha (corn (Zea mays); Zea mays, post-emergence, Postemergence, scale 0 (no effect) to 100 (complete control), 13 to 15 days): 25%
Corn plant response rating (crop injury, 0 = no effect, 100 = complete kill) at 125 g/ha (corn (Zea mays); Zea mays, post-emergence, Postemergence, 125 g ai/ha, visual rating after 13 to 15 days, scale 0 (no effect) to 100 (complete control)): 35%
Corn plant response rating (crop injury, 0 = no effect, 100 = complete kill) at 16 g/ha (corn (Zea mays); [12]): 0%
Corn plant response rating (crop injury, 0 = no effect, 100 = complete kill) at 31 g/ha (corn (Zea mays); [12]): 0%
Corn plant response rating (crop injury, 0 = no effect, 100 = complete kill) at 62 g/ha (corn (Zea mays); Zea mays, pre-emergence, Preemergence, scale 0 to 100, 0 no effect, 100 complete control): 0%
pest or weed control at 250 g/ha ([4]; 250 g ai/ha, flooded paddy test, visual rating on 0 to 100 scale (0 no effect, 100 complete control) after 13 to 15 days, read-out: Plant response rating, Flood, Sedge, Umbrella): 75%
pest or weed control at 31 g/ha ([4]; Flood (flooded paddy test), 31 g ai/ha, scale of 0 to 100 where 0 is no effect and 100 is complete control, 13 to 15 days, read-out: Plant response rating, Sedge, Umbrella): 0%
pest or weed control at 62 g/ha ([4]; Flood (flooded paddy test), 62 g ai/ha, scale 0 to 100, 0 is no effect, 100 is complete control, 13 to 15 days, read-out: Plant response rating, Sedge, Umbrella): 0%
pest or weed control at 125 g/ha ([4]; Flood (flooded paddy test), 125 g ai/ha, scale 0 to 100, 0 is no effect, 100 is complete control, 13 to 15 days, read-out: Plant response rating, Sedge, Umbrella): 45%
pest or weed control at 250 g/ha ([5]; 250 g ai/ha, flooded paddy test, visual rating on 0 to 100 scale (0 no effect, 100 complete control) after 13 to 15 days, read-out: Plant response rating, Flood, Ducksalad): 78%
pest or weed control at 31 g/ha ([5]; Flood (flooded paddy test), 31 g ai/ha, scale of 0 to 100 where 0 is no effect and 100 is complete control, 13 to 15 days, read-out: Plant response rating, Ducksalad): 15%
pest or weed control at 62 g/ha ([5]; Flood (flooded paddy test), 62 g ai/ha, scale 0 to 100, 0 is no effect, 100 is complete control, 13 to 15 days, read-out: Plant response rating, Ducksalad): 40%
pest or weed control at 125 g/ha ([5]; Flood (flooded paddy test), 125 g ai/ha, scale 0 to 100, 0 is no effect, 100 is complete control, 13 to 15 days, read-out: Plant response rating, Ducksalad): 58%
pest or weed control at 250 g/ha ([6]; 250 g ai/ha, flooded paddy test, visual rating on 0 to 100 scale (0 no effect, 100 complete control) after 13 to 15 days, read-out: Plant response rating, Flood, Barnyardgrass): 0%
pest or weed control at 31 g/ha ([6]; Flood (flooded paddy test), 31 g ai/ha, scale of 0 to 100 where 0 is no effect and 100 is complete control, 13 to 15 days, read-out: Plant response rating, Barnyardgrass): 0%
pest or weed control at 62 g/ha ([6]; Flood (flooded paddy test), 62 g ai/ha, scale 0 to 100, 0 is no effect, 100 is complete control, 13 to 15 days, read-out: Plant response rating, Barnyardgrass): 0%
pest or weed control at 125 g/ha ([6]; Flood (flooded paddy test), 125 g ai/ha, scale 0 to 100, 0 is no effect, 100 is complete control, 13 to 15 days, read-out: Plant response rating, Barnyardgrass): 0%
plant injury at 250 g/ha (rice (Oryza sativa); 250 g ai/ha, flooded paddy test, visual rating on 0 to 100 scale (0 no effect, 100 complete control) after 13 to 15 days, read-out: Plant response rating, Flood, Rice): 8%
plant injury at 31 g/ha (rice (Oryza sativa); Flood (flooded paddy test), 31 g ai/ha, scale of 0 to 100 where 0 is no effect and 100 is complete control, 13 to 15 days, read-out: Plant response rating, Rice): 0%
plant injury at 62 g/ha (rice (Oryza sativa); Flood (flooded paddy test), 62 g ai/ha, scale 0 to 100, 0 is no effect, 100 is complete control, 13 to 15 days, read-out: Plant response rating, Rice): 0%
plant injury at 125 g/ha (rice (Oryza sativa); Flood (flooded paddy test), 125 g ai/ha, scale 0 to 100, 0 is no effect, 100 is complete control, 13 to 15 days, read-out: Plant response rating, Rice): 0%
